Values quoted from earlier work, collected in paper PMC5459304 (International journal of toxicology, 2017).

Test system: patients

## CC1(C)C(/C=C/C=C/C=C/C=C2\N(CCCCS(=O)(=O)O)c3ccc4ccccc4c3C2(C)C)=[N+](CCCCS(=O)(=O)[O-])c2ccc3ccccc3c21 [ICG, indocyanine green]
1 severe reaction among 1226 patients
  severe reaction rate: 0.05%
1226 patients
  number of reactions: 7 reactions out of 1923 ICG angiograms
1923 ICG angiograms in 1226 patients
  adverse reaction rate: 0.3%
ICG angiograms from Japanese ophthalmologists
  number of severe reactions: 2 severe reactions among 2820 patients
